Measured values as given in patent US6344457B1, “Amino acid derivatives inhibiting extracellular matrix metalloproteinase and TNF alpha release” (Chiesi Farmaceutici S.p.A., priority 1997, dated 2002).
Where two headings read alike, the source gives them in different places.

How the values were obtained:
[1] = Determination of bioavailability (blood levels, ex-vivo bioassay); type: in vivo; details: mice
Method: The compounds of this invention were administered i.p. or p.o. between 1 and 50 mg/kg to mice: the blood levels then were determined by an ex-vivo bioassay according to Wang X. et al. (Cancer Res., 54, 4726-4728, 1994). The introduction of an OH group systematically increases the bioavailability of the products.

[2] = target: 92 kDa gelatinase of human origin (Homo sapiens, UniProt P14780); assay: Activity on gelatinase, radiomarked gelatin; type: biochemical; details: test performed with radiomarked gelatin; read-out: C150 (nM) gelatinase 92 kDa*
Sequence of 92 kDa gelatinase of human origin (P14780 94-707): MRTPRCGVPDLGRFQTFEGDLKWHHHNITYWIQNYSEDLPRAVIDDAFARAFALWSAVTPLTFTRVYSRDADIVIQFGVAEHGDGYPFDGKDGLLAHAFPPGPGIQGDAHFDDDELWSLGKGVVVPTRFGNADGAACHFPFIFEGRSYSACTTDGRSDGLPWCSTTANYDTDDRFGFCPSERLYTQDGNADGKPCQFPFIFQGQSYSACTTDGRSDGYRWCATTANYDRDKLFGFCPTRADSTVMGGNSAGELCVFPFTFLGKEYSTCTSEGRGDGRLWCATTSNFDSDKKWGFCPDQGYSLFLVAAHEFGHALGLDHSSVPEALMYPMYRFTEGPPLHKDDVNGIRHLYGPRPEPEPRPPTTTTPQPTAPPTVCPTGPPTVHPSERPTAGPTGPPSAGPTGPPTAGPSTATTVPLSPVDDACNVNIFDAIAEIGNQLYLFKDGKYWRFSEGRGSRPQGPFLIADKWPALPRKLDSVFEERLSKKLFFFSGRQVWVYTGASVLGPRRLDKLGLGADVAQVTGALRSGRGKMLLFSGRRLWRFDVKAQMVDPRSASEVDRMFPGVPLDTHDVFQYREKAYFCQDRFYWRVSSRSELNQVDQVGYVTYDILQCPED
Method: The anti-gelatinase activity of the compounds according to the invention also was determined on 92 kDa or 72 kDa gelatinase of human origin, in accordance with the operating mode described by Harris, E. D., Krane, S. M.; (Biochem. Biophys. Acta, 258, 566-576, 1972).
The gelatinase was incubated at 37° C. for 16 hours with radiomarked gelatin, and its activity was determined by the release of the soluble peptides produced by the enzymatic breakdown of the gelatin. The inhibiting concentration C150 for each compound was determined by measurement of the activity of the enzyme in the presence of the inhibitor at a concentration ranging between 10^−7 and 10^−12 M (the inhibitor is dissolved in the same manner as for collagenase).

[3] = system: release of TNF from the peritoneal macrophages of mice stimulated by LPS; assay: Inhibition of the production of TNF in vitro; type: cell-based; details: Peritoneal macrophage; mouse peritoneal macrophages, LPS 100 ng/ml; read-out: C150 (μM) TNF
Method: The capacity of the compounds according to this invention to inhibit the release of TNF was determined from the peritoneal macrophages of mice stimulated by LPS (Lang, F., Robert, […], Petit, J. Y., J. Pharmacol. Exp. Ther., 275, 171-176, 1995). After an adhesion phase of 2 hours, the cells were treated for 1 hour with the compound to be tested at concentrations ranging between 10^-6 to 10^-9 M (the inhibitor is dissolved in DMSO at 10^-2 M, then at 5.10^-3 M in RPMI 1640 with 5% SVF, then diluted successively by tenths in the same medium), then stimulated by the addition of LPS (100 ng/ml in final concentration). Three hours later, the biological activity of the TNF in the supernatants was determined by a cytotoxicity test using the murine stock L929 in accordance with the operating procedure described by Band, G., Lin, […]., Evans, C. H. (Bioch. Biophys. Acta, 1134, 309-318, 1982). The pg/ml concentration of the TNF of the samples was determined from a murine αTNF standard curve, thus making it possible to define the inhibiting concentration […] of the compounds studied.

[4] = target: T1, collagenase of the human monocytic stock U937 (Homo sapiens, UniProt P03956); assay: Activity on collagenase; type: biochemical; details: radiomarked collagen, 27° C., 16 hours; read-out: C150 (nM) collagenase
T1 construct: the collagenase of the human monocytic stock U937; endogenous in cells; host or cells: U937 human monocytic cell line
T1 sequence (P03956 100-469): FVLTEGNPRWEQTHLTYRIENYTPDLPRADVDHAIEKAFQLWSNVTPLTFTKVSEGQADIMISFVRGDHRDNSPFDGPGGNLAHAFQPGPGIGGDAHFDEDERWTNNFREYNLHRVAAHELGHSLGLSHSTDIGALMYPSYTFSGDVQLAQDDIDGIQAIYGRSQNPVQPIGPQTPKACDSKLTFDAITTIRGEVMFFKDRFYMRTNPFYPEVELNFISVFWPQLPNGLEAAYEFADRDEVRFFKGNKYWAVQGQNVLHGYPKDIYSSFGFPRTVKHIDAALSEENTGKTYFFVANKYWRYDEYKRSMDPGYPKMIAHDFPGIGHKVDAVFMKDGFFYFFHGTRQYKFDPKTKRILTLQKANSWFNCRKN
Method: The collagenase was incubated at 27° C. for 16 hours with radiomarked collagen, and its activity was determined by the release of soluble peptides produced by the enzymatic breakdown of the collagen. The inhibiting concentration C150 for each compound was determined by measurement of the activity of the enzyme in the presence of the inhibitor at a concentration ranging between 10^−7 and 10^−12 M (the inhibitor is dissolved at a concentration of 10^−2 M in DMSO, then diluted successively by tenths in the buffer: Tris, HCl 150 mM, pH 7.5; NaCl 0.15 M; CaCl2 10 mM).

[5] = mouse, blood, po, 50 mg/kg, 50 mg/kg p.o., read-out: blood level, P.o. method, 10′
[6] = mouse, blood, po, 50 mg/kg, 50 mg/kg p.o., read-out: blood level, P.o. method, 20′
[7] = mouse, blood, po, 50 mg/kg, 50 mg/kg p.o., read-out: blood level, P.o. method, 40′
[8] = mouse, blood, ip, 50 mg/kg, 50 mg/kg i.p., read-out: blood level, I.p. method, 10′
[9] = mouse, blood, ip, 50 mg/kg, 50 mg/kg i.p., read-out: blood level, I.p. method, 20′
[10] = mouse, blood, ip, 50 mg/kg, 50 mg/kg i.p., read-out: blood level, I.p. method, 40′
[11] = mouse, blood, po, 50 mg/kg, 50 mg/kg p.o., read-out: blood level, P.o. method, 1 h
[12] = mouse, blood, po, 50 mg/kg, 50 mg/kg p.o., read-out: blood level, P.o. method, 24 h
[13] = mouse, blood, ip, 50 mg/kg, 50 mg/kg i.p., read-out: blood level, I.p. method, 1 h
[14] = mouse, blood, ip, 50 mg/kg, 50 mg/kg i.p., read-out: blood level, I.p. method, 24 h

CNC(=O)C(Cc1ccc(Cl)c(Cl)c1)NC(=O)[C@](O)(CC(C)C)[C@H](C)C(=O)NO (some centres unmarked)
concentration at 10 min [1, 5]: 600 ng/mL
concentration at 20 min [1, 6]: 300 ng/mL
concentration at 40 min [1, 7]: 600 ng/mL

CNC(=O)[C@@H](NC(=O)[C@H](CC(C)C)[C@H](O)C(=O)NO)C(C)C
concentration at 10 min [1, 8]: 20000 ng/mL
concentration at 20 min [1, 9]: 9000 ng/mL
concentration at 40 min [1, 10]: 47000 ng/mL
concentration at 10 min [1, 5]: 2200 ng/mL
concentration at 20 min [1, 6]: 4300 ng/mL
concentration at 30 min ([1]; mouse, blood, po, 50 mg/kg, 50 mg/kg p.o., 30′, read-out: blood level, P.o. method, 30′): 300 ng/mL
concentration at 1 h [1, 11]: 500 ng/mL
concentration at 24 h [1, 12]: 170 ng/mL

CNC(=O)[C@H](Cc1ccc(OC)cc1)NC(=O)C(O)(CC(C)C)[C@H](O)C(=O)NO (some centres unmarked)
concentration at 10 min [1, 8]: 20000 ng/mL
concentration at 20 min [1, 9]: 0 ng/mL
concentration at 40 min [1, 10]: 4000 ng/mL
concentration at 10 min [1, 5]: 10000 ng/mL
concentration at 20 min [1, 6]: 9000 ng/mL
concentration at 1 h [1, 11]: 9000 ng/mL
concentration at 24 h [1, 12]: 9000 ng/mL

CNC(=O)[C@@H](NC(=O)C(O)(CC(C)C)[C@H](C)C(=O)NO)C(C)(C)C (some centres unmarked)
concentration at 10 min [1, 8]: 56000 ng/mL
concentration at 20 min [1, 9]: 22000 ng/mL
concentration at 1 h [1, 13]: 3500 ng/mL

CNC(=O)[C@H](Cc1ccc(OC)cc1)NC(=O)[C@](O)(CC(C)C)C(C)N(O)C=O (mixture of isomers) [Example 38, N-2(S)-[1(N-hydroxy-N-formyl)ethyl]2(S)-hydroxy4-methylpentanoyl-o-methyl L-tyrosine methylamide]
IC50 [2]: 17 nM
IC50 [3]: 3.2 µM
IC50 [4]: 130 nM

CC(C)C[C@@](O)(C(=O)NC(Cc1ccc(Cl)cc1)C(=O)NCCN1CCOCC1)C(C)C(=O)NO (some centres unmarked) [Example 12b]
IC50 [3]: 1.6 µM

CC(C)C[C@@](O)(C(=O)NC(Cc1ccc(Cl)cc1)C(=O)NCCN1CCOCC1)[C@H](C)C(=O)NO (some centres unmarked) [Example 12b]
IC50 [2]: 8 nM
IC50 [4]: 22 nM

CNC(=O)[C@H](Cc1cccc(Cl)c1)NC(=O)[C@](O)(CC(C)C)[C@H](C)C(=O)NO [Example 22, N-2(S)-[1(S) hydroxycarbamoyl-1 ethyl]-2(S) hydroxy-4-methylpentanoyl L-3-chlorophenylalanine N-methylamide]
IC50 [3]: 0.13 µM
IC50 [4]: 2.4 nM

CNC(=O)[C@H](Cc1c[nH]c2ccccc12)NC(=O)[C@](O)(CC(C)C)[C@H](C)C(=O)NO [Example 26, N-2-(S)[1(S) hydroxycarbamoyl-1 ethyl]-2(S)hydroxy-4-methylpentanoyl L-tryptophan N-methylamide]
IC50 [2]: 0.6 nM
IC50 [3]: 4.4 µM

CC(C)C[C@@](O)(C(=O)N[C@@H](Cc1ccc(Cl)cc1)C(=O)NCCC#N)[C@H](C)C(=O)NO [Example 27, N-2(S)[1(S) hydroxycarbamoyl-1 ethyl]-2(S)hydroxy-4-methylpentanoyl L-4-chlorophenylalanine N-(2-cyano-1-ethyl) amide]
IC50 [2]: 1.7 nM

CC(C)C[C@@](O)(C(=O)N[C@@H](Cc1ccc(Cl)cc1)C(=O)NCC/C(N)=N/O)[C@H](C)C(=O)NO [Example 28, N-2(S)[1(S) hydroxycarbamoyl-1 ethyl]-2(S)hydroxy-4-methylpentanoyl L-4-chlorophenylalanine N-oximino-2-amino-2-ethylamide]
IC50 [2]: 1.6 nM
IC50 [4]: 26 nM

CNC(=O)[C@H](Cc1ccc(OC)cc1)NC(=O)[C@H](CC(C)C)[C@H](C)C(=O)NO [drawing 113]
concentration at 10 min [1, 8]: 200 ng/mL
concentration at 20 min [1, 9]: < 100 ng/mL
concentration at 40 min [1, 10]: < 100 ng/mL
concentration at 10 min [1, 5]: < 100 ng/mL
concentration at 20 min [1, 6]: < 100 ng/mL
concentration at 40 min [1, 7]: < 100 ng/mL

CNC(=O)[C@H](Cc1ccc(OC)cc1)NC(=O)[C@](O)(CC(C)C)[C@H](C)C(=O)NO [drawing 114]
concentration at 10 min [1, 8]: 23000 ng/mL
concentration at 20 min [1, 9]: 8700 ng/mL
concentration at 1 h [1, 13]: 770 ng/mL
concentration at 24 h [1, 14]: < 500 ng/mL
concentration at 10 min [1, 5]: 4200 ng/mL
concentration at 20 min [1, 6]: 2100 ng/mL
concentration at 1 h [1, 11]: 580 ng/mL
concentration at 24 h [1, 12]: < 500 ng/mL

CC(C)C[C@@](O)(C(=O)N[C@@H](Cc1ccc(Cl)cc1)C(=O)NCCN1CCOCC1)[C@H](C)C(=O)NO [drawing 115]
blood level, I.p. method, 10′ ([1]; 50 mg/kg i.p.): 30000 ng/mL
blood level, I.p. method, 20′ ([1]; 50 mg/kg i.p.): 27000 ng/mL
blood level, P.o. method, 10′ ([1]; 50 mg/kg p.o.): 2300 ng/mL
blood level, P.o. method, 20′ ([1]; 50 mg/kg p.o.): 1200 ng/mL
blood level, P.o. method, 24 h ([1]; 50 mg/kg p.o.): 900 ng/mL
concentration at 40 min [1, 10]: 18000 ng/mL

CC(C)C[C@@](O)(C(=O)N[C@@H](Cc1ccc(Cl)cc1)C(=O)NCCN1CCOCC1)[C@H](C)C(=O)NO [drawing 116]
blood level, I.p. method, 10′ ([1]; 50 mg/kg i.p.): 87000 ng/mL
blood level, I.p. method, 20′ ([1]; 50 mg/kg i.p.): 13000 ng/mL
blood level, P.o. method, 10′ ([1]; 50 mg/kg p.o.): 5100 ng/mL
blood level, P.o. method, 20′ ([1]; 50 mg/kg p.o.): 3100 ng/mL
blood level, P.o. method, 24 h ([1]; 50 mg/kg p.o.): <300 ng/mL
concentration at 1 h [1, 13]: 1700 ng/mL
concentration at 24 h [1, 14]: 300 ng/mL
concentration at 1 h [1, 11]: 400 ng/mL

CC(C)C[C@@](O)(C(=O)N[C@@H](Cc1ccc(Cl)c(Cl)c1)C(=O)NCCN1CCOCC1)[C@H](C)C(=O)NO [drawing 118]
blood level, I.p. method, 10′ ([1]; 50 mg/kg i.p.): 700 ng/mL
blood level, I.p. method, 20′ ([1]; 50 mg/kg i.p.): 500 ng/mL
blood level, I.p. method, 40′ ([1]; 50 mg/kg i.p.): 100 ng/mL
blood level, P.o. method, 10′ ([1]; 50 mg/kg p.o.): 100 ng/mL
blood level, P.o. method, 20′ ([1]; 50 mg/kg p.o.): 100 ng/mL

CC(C)C[C@@](O)(C(=O)N[C@@H](Cc1ccc(Cl)c(Cl)c1)C(=O)NCCN1CCOCC1)[C@H](C)C(=O)NO [drawing 119]
blood level, I.p. method, 10′ ([1]; 50 mg/kg i.p.): 6000 ng/mL
blood level, I.p. method, 20′ ([1]; 50 mg/kg i.p.): 5000 ng/mL
blood level, I.p. method, 40′ ([1]; 50 mg/kg i.p.): 1800 ng/mL
blood level, P.o. method, 10′ ([1]; 50 mg/kg p.o.): 1250 ng/mL
blood level, P.o. method, 20′ ([1]; 50 mg/kg p.o.): 800 ng/mL
concentration at 1 h [1, 11]: 450 ng/mL

CC(C)C[C@@](O)(C(=O)N[C@@H](Cc1ccc(Cl)c(Cl)c1)C(=O)NCCOCCO)[C@H](C)C(=O)NO [drawing 120]
concentration at 10 min [1, 8]: 4500 ng/mL
concentration at 20 min [1, 9]: 7800 ng/mL
concentration at 40 min [1, 10]: 4400 ng/mL
concentration at 10 min [1, 5]: 100 ng/mL
concentration at 20 min [1, 6]: 100 ng/mL

CNC(=O)[C@@H](NC(=O)[C@H](CC(C)C)[C@H](O)C(=O)NO)C(C)(C)C [reference compound]
IC50 [3]: 0.14 µM

N-2-(S)[(S)-hydroxy-(S)hydroxycarbamoylmethyl)-2(S)-hydroxy-4-methyl]pentanoyl-o-methyl-3-methyl-(S) valine N-methylamide [Example 34]
IC50 [2]: 34 nM
